“Also recorded” adds a separate entry of the source.
Experiments:
[1] = test system: patients suffering from minimal hepatic encephalopathy (MHE); conditions: compared to placebo or no intervention; cited from earlier work
LDLR-KO mice [2] = assay: Serum lipids and Ox-LDL in LDLR-KO mice on western diet (Example 4); format: in vivo; conditions: LDLR-KO mice at 1.5 months and 3 months; FIGS. 10A and 10B
Excerpt: (§1) Animals: Homozygous LDL receptor knockout (LDLr−/−; C57BL/6) mice were purchased from the Jackson Laboratory (Bar Harbor, Me.). This genetically manipulated mouse strain is most commonly used for the pre-clinical study of high-fat diet induced hyperlipidemia and atherosclerosis. Nine weeks of age mice were separated into five groups (Groups #1-#5) and fed with normal diet (Group #1; Picolab, 5053) or high fat diet (Group #2-#5; HFD; Harlan Teklad, TD 88137) for 12 weeks. Atorvastatin (Lipitor) was added to the HFD (0.16% w/w) to Group #4 and Group #5. Lactulose (3 g/kg/day, in water solution) was orally administered every 12 hours to Group #3 and Group #5. The LDLR-KO mice were fed for three months with a normal or western diet, with or without lactulose, and with or without atorvastatin. Analysis of serum samples: Lipids, including LDL and HDL, as well as oxidized low density lipoprotein (Ox-LDL) present in serum was measured using an ELISA kit (Cell biolabs).

[3] = test system: Substance P and nerve growth factor (NGF); assay: Pain associated factors (Substance P, NGF) in mice with pregabalin; format: in vivo; conditions: hydrogen generated by lactulose
LDLR-KO mice [4] = assay: Weight increase of LDLR-KO mice on western diet (Example 4); format: in vivo; conditions: western diet 12 weeks, atorvastatin 0.16% w/w in HFD, lactulose 3 g/kg/day oral, FIG. 9
Excerpt: as §1, with “atorvastatin.” for “atorvastatin. Analysis of serum samples: Lipids, including LDL and HDL, as well as oxidized low density lipoprotein (Ox-LDL) present in serum was measured using an ELISA kit (Cell biolabs).”

rats = conditions: cited from earlier work
LDLR knockout mice [5] = assay: Liver histology, fatty liver development in LDLR knockout mice on high fat diet (Example 3); format: in vivo; conditions: LDLR-KO mice, high fat diet 12 weeks; lactulose 400 mg/day oral gavage; FIG. 7
Experimental: (§2) Low density lipoprotein receptor (LDLR) knockout mice and their wild type (C57BL6/J), were purchased from Jackson Laboratories (Bar Harbor, Me., USA). Male LDLR knockout mice (9-w old male) received control standard diet (Picolab, MO, USA; diet #5053) or high fat diet (Tekland Custom Diet, WI, USA; diet #TD88137). The LDLR mice received high fat diet were further randomly divided into four groups; G1) 20 mg/kg day atorvastatin group, G2) 400 mg/day lactulose group, G3) combination group, and G4) negative control group (no atorvastatin or lactulose). Atorvastatin was supplemented in the diet and lactulose was administered by oral gavage, twice a day. Wild type mice were maintained on the standard diet. All mice were fed with above noted respective diet for 12 weeks and sacrificed for post mortal analyses.
Blood was collected by heart puncture at left ventricular on the sacrificed mice, followed flushing the blood circulation with PBS, and the aorta and liver lobes were removed for laboratory evaluations.
Aortas and liver lobes were frozen in OCT compound (Sakura finetek, Japan).
Cryosections of aortas and liver lobes were stained with hematoxylin and eosin. Atherosclerosis legions were evaluated by Oil-Red 0 staining.

LDLR knockout mice [6] = assay: Serum lipoproteins (HDL, LDL, Ox-LDL) in LDLR knockout mice on high fat diet (Example 3); format: in vivo
Experimental: as §2, with “analyses. Blood was collected by heart puncture at left ventricular on the sacrificed mice, followed flushing the blood circulation with PBS, and the aorta and liver lobes were removed for laboratory evaluations. Blood was drawn from heart in the absence of anti-coagulant agents, and the serum was prepared. High-density lipoprotein cholesterol and low-density lipoprotein (LDL) cholesterol were determined by a commercial colorimetric assay (Sigma-Aldrich, MO, USA). Oxidative-LDL was measured by ELISA (Uscn Life Science, TX, USA).” for “analyses.”

[7] = H2 amount in mice after oral inulin; format: in vivo; conditions: oral administration
F. nucleatum = conditions: FIG. 4
Experimental: Incubate one of the periodontal bacteria for 4 hours with/without hydrogen and measure the hydrogen sulfide concentration.
Culture F. nucleatum (oral bacteria that produce H2S) overnight.
Incubate F. nucleatum in H2 or N2 condition for 4 hours.
Keep supernatant (3 ml) in 15 ml conical tube at 4° C.
Measure the H2S concentration in the conical tube (N=5, 1:10 dilution).

OC[C@H]1O[C@@H](O[C@@H]2[C@@H](CO)OC(O)(CO)[C@H]2O)[C@H](O)[C@@H](O)[C@H]1O (mixture of isomers) [lactulose]
blood ammonia levels [1]: reduced
health-related quality of life [1]: improved
progression to overt hepatic encephalopathy [1]: prevented
risk of no improvement in neuropsychological tests [1]: reduced
amount of Ox-LDL in serum (LDLR-KO mice [2]): able to suppress
pregabalin-mediated suppression of pain associated factors (Substance P and nerve growth factor (NGF)) [3]: additive effect
weight increase (LDLR-KO mice [4]): moderate weight increase; also recorded: suppress weight gain
incidence of MHE (rats): decreased
latency of BAEP (rats): normalized
level of hyper-endotoxemia (rats): significantly lowered
level of hyperammonemia (rats): significantly lowered
fatty liver development (LDLR knockout mice [5]): remarkable preventative effects
amount of HDL (good cholesterol) (LDLR knockout mice [6]; LDLR-KO mice, high fat diet 12 weeks, atorvastatin 20 mg/kg day in diet, lactulose 400 mg/day oral gavage, FIG. 8A): didn't change
LDL (bad cholesterol) levels (LDLR knockout mice [6]; LDLR-KO mice, high fat diet 12 weeks, atorvastatin 20 mg/kg day in diet, lactulose 400 mg/day oral gavage, FIG. 8B): no effects; also recorded: did not change
blood Ox-LDL caused by a fat diet (LDLR knockout mice [6]; lactulose by itself, previously found): can suppress

Inulin
amount of H2 [7]: elevates

hydrogen
production of dimethyl sulfide (DMS) (F. nucleatum; F. nucleatum cultured with H2): elevated production
Hydrogen sulfide (H2S) concentration (F. nucleatum; F. nucleatum incubated in H2 or N2 condition for 4 hours): tends to be reduced
